Experimental data from patent US4613355A, “Antibiotic having herbicidal activity” (Satoshi Omura, priority 1983, dated 1986).
Where a name gives a salt, the structure may show the parent alone.

Tests used:
Format in all cases: in vivo
Larix leptolepis = assay: Foliage treatment of woody plants (Example 10); design: key: 0 indicates no effect; 5 indicates complete kill; conditions: Plant No. 23 Larix leptolepis
Excerpt: (§1) Aqueous solutions containing Phosalacine (Na salt) at different concentrations and 0.1% of octylphenylpolyoxy ethanol as surfactant were applied at a rate of 1500 liter per hectare to woody plants of about 60-70 cm in height. 7 and 14 days after the foliage treatment, damage to the plants was visually assessed on a scale of from 0 to 5 (cf. Example 7).

Castanea crenata [1] = assay: Foliage treatment of woody plants (Example 10); design: key: 0 indicates no effect; 5 indicates complete kill; conditions: Plant No. 8 Castanea crenata
Excerpt: as §1

Picea densiflora = assay: Foliage treatment of woody plants (Example 10); design: key: 0 indicates no effect; 5 indicates complete kill; conditions: Plant No. 22 Picea densiflora
Excerpt: as §1

Chamaecyparis obtusa = assay: Foliage treatment of woody plants (Example 10); design: key to damage to the plants, scale 0 to 5: 0 indicates no effect; 5 indicates complete kill; conditions: CH Chamaecyparis obtusa
Excerpt: as §1

Cryptomeria japonica = assay: Foliage treatment of woody plants (Example 10); design: key to damage to the plants, scale 0 to 5: 0 indicates no effect; 5 indicates complete kill; conditions: CP Cryptomeria japonica
Excerpt: as §1

[2] = tested on: various weeds and brush (overall evaluation); assay: Foliage treatment of naturally growing weeds and brush (Example 9); design: key: 0 indicates no effect; 5 indicates complete kill; conditions: OE overall evaluation, One month
Excerpt: (§2) Aqueous solutions of Phosalacine (Na salt) at different concentrations and 0.1% of octylphenylpolyoxy ethanol as surfactant were applied to the area where various weeds and brush were naturally growing at a rate of 1500 liter per hectare. One month after the foliage treatment, damage to weeds and brush was visually assessed on a scale of from 0 to 5 where 0 indicates no effect and 5 indicates complete kill as hereinbefore defined.

Viburnum dilatatum = assay: as above; design: key: 0 indicates no effect; 5 indicates complete kill; conditions: Plant No. 21 Viburnum dilatatum, One month
Excerpt: as §2

Rubus palmatus = assay: as above; design: key: 0 indicates no effect; 5 indicates complete kill; conditions: Plant No. 18 Rubus palmatus, One month
Excerpt: as §2

Castanea crenata [3] = assay: as above; design: key: 0 indicates no effect; 5 indicates complete kill; conditions: Plant No. 8 Castanea crenata, One month
Excerpt: as §2

Zanthoxylum piperitum = assay: as above; design: key: 0 indicates no effect; 5 indicates complete kill; conditions: Plant No. 19 Zanthoxylum piperitum, One month
Excerpt: as §2

Pteridium aquilinum = assay: as above; design: key: 0 indicates no effect; 5 indicates complete kill; conditions: Plant No. 20 Pteridium aquilinum, One month
Excerpt: as §2

Smilax china = assay: as above; design: key: 0 indicates no effect; 5 indicates complete kill; conditions: Plant No. 17 Smilax china, One month
Excerpt: as §2

Allium fistulosum = assay: Foliage treatment (Example 8); design: key: 0 indicates no effect; 5 indicates complete kill; conditions: Plant No. 27 Allium fistulosum
Experimental: (§3) Aqueous solutions of Phosalacine (Na salt) at different concentrations were applied at a rate of 1500 liters per hectare to naturally occurring plants or plants which were cultured on plates as shown in the following Table at certain stages of growth. […]

Artemisia princeps = assay: Foliage treatment (Example 8); design: key: 0 indicates no effect; 5 indicates complete kill; conditions: Plant No. 1 Artemisia princeps
Experimental: as §3

Oxalis corniculata = assay: Foliage treatment (Example 8); design: key: 0 indicates no effect; 5 indicates complete kill; conditions: Plant No. 35 Oxalis corniculata
Experimental: as §3

Glycine max = assay: Foliage treatment (Example 8); design: key: 0 indicates no effect; 5 indicates complete kill; conditions: Plant No. 34 Glycine max
Experimental: as §3

Euphonia supina = assay: Foliage treatment (Example 8); design: key: 0 indicates no effect; 5 indicates complete kill; conditions: Plant No. 36 Euphonia supina
Experimental: as §3

[4] = tested on: Eleucine indica var. carocana; assay: Foliage treatment (Example 8); design: key: 0 indicates no effect; 5 indicates complete kill; conditions: Plant No. 24 Eleucine indica var. carocana
Experimental: as §3

Structure (SMILES): CC(C)C[C@H](NC(=O)[C@H](C)NC(=O)[C@@H](N)CCP(C)(=O)O)C(=O)O [Phosalacine (Na salt)]
- damage to the plants, scale 0 to 5 (Larix leptolepis; 0.125%, 7 days): 4
- damage to the plants, scale 0 to 5 (Larix leptolepis; 0.125%, 14 days): 5
- damage to the plants, scale 0 to 5 (Larix leptolepis; 0.25%, 7 days): 4
- damage to the plants, scale 0 to 5 (Larix leptolepis; 0.25%, 14 days): 5
- damage to the plants, scale 0 to 5 (Larix leptolepis; 0.5%, 7 days): 4
- damage to the plants, scale 0 to 5 (Larix leptolepis; 0.5%, 14 days): 5
- damage to the plants, scale 0 to 5 (Castanea crenata [1]; 0.125%, 7 days): 5
- damage to the plants, scale 0 to 5 (Castanea crenata [1]; 0.125%, 14 days): 5
- damage to the plants, scale 0 to 5 (Castanea crenata [1]; 0.25%, 7 days): 5
- damage to the plants, scale 0 to 5 (Castanea crenata [1]; 0.25%, 14 days): 5
- damage to the plants, scale 0 to 5 (Castanea crenata [1]; 0.5%, 7 days): 5
- damage to the plants, scale 0 to 5 (Castanea crenata [1]; 0.5%, 14 days): 5
- damage to the plants, scale 0 to 5 (Picea densiflora; 0.125%, 7 days): 4
- damage to the plants, scale 0 to 5 (Picea densiflora; 0.125%, 14 days): 5
- damage to the plants, scale 0 to 5 (Picea densiflora; 0.25%, 7 days): 4
- damage to the plants, scale 0 to 5 (Picea densiflora; 0.25%, 14 days): 5
- damage to the plants, scale 0 to 5 (Picea densiflora; 0.5%, 7 days): 4
- damage to the plants, scale 0 to 5 (Picea densiflora; 0.5%, 14 days): 5
- damage to the plants, scale 0 to 5 (Chamaecyparis obtusa; 0.125%, 7 days): 0
- damage to the plants, scale 0 to 5 (Chamaecyparis obtusa; 0.125%, 14 days): 0
- damage to the plants, scale 0 to 5 (Chamaecyparis obtusa; 0.25%, 7 days): 0
- damage to the plants, scale 0 to 5 (Chamaecyparis obtusa; 0.25%, 14 days): 0
- damage to the plants, scale 0 to 5 (Chamaecyparis obtusa; 0.5%, 7 days): 0
- damage to the plants, scale 0 to 5 (Chamaecyparis obtusa; 0.5%, 14 days): 0
- damage to the plants, scale 0 to 5 (Cryptomeria japonica; 0.125%, 7 days): 0
- damage to the plants, scale 0 to 5 (Cryptomeria japonica; 0.125%, 14 days): 0
- damage to the plants, scale 0 to 5 (Cryptomeria japonica; 0.25%, 7 days): 0
- damage to the plants, scale 0 to 5 (Cryptomeria japonica; 0.25%, 14 days): 1
- damage to the plants, scale 0 to 5 (Cryptomeria japonica; 0.5%, 7 days): 0
- damage to the plants, scale 0 to 5 (Cryptomeria japonica; 0.5%, 14 days): 2
- damage to weeds and brush, scale 0 to 5 ([2]; 0.05%): 3
- damage to weeds and brush, scale 0 to 5 ([2]; 0.1%): 5
- damage to weeds and brush, scale 0 to 5 ([2]; 0.2%): 5
- damage to weeds and brush, scale 0 to 5 (Viburnum dilatatum; 0.05%): 3
- damage to weeds and brush, scale 0 to 5 (Viburnum dilatatum; 0.1%): 5
- damage to weeds and brush, scale 0 to 5 (Viburnum dilatatum; 0.2%): 5
- damage to weeds and brush, scale 0 to 5 (Rubus palmatus; 0.05%): 3
- damage to weeds and brush, scale 0 to 5 (Rubus palmatus; 0.1%): 5
- damage to weeds and brush, scale 0 to 5 (Rubus palmatus; 0.2%): 5
- damage to weeds and brush, scale 0 to 5 (Castanea crenata [3]; 0.05%): 3
- damage to weeds and brush, scale 0 to 5 (Castanea crenata [3]; 0.1%): 5
- damage to weeds and brush, scale 0 to 5 (Castanea crenata [3]; 0.2%): 5
- damage to weeds and brush, scale 0 to 5 (Zanthoxylum piperitum; 0.05%): 3
- damage to weeds and brush, scale 0 to 5 (Zanthoxylum piperitum; 0.1%): 5
- damage to weeds and brush, scale 0 to 5 (Zanthoxylum piperitum; 0.2%): 5
- damage to weeds and brush, scale 0 to 5 (Pteridium aquilinum; 0.05%): 3
- damage to weeds and brush, scale 0 to 5 (Pteridium aquilinum; 0.1%): 5
- damage to weeds and brush, scale 0 to 5 (Pteridium aquilinum; 0.2%): 5
- damage to weeds and brush, scale 0 to 5 (Smilax china; 0.05%): 3
- damage to weeds and brush, scale 0 to 5 (Smilax china; 0.1%): 5
- damage to weeds and brush, scale 0 to 5 (Smilax china; 0.2%): 5
- damage to the plants, scale 0 to 5 (Allium fistulosum; 0.05%, 7 days): 3
- damage to the plants, scale 0 to 5 (Allium fistulosum; 0.05%, 14 days): 5
- damage to the plants, scale 0 to 5 (Allium fistulosum; 0.1%, 7 days): 5
- damage to the plants, scale 0 to 5 (Allium fistulosum; 0.1%, 14 days): 5
- damage to the plants, scale 0 to 5 (Artemisia princeps; 0.05%, 7 days): 3
- damage to the plants, scale 0 to 5 (Artemisia princeps; 0.05%, 14 days): 4
- damage to the plants, scale 0 to 5 (Artemisia princeps; 0.1%, 7 days): 5
- damage to the plants, scale 0 to 5 (Artemisia princeps; 0.1%, 14 days): 5
- damage to the plants, scale 0 to 5 (Oxalis corniculata; 0.05%, 7 days): 3
- damage to the plants, scale 0 to 5 (Oxalis corniculata; 0.05%, 14 days): 4
- damage to the plants, scale 0 to 5 (Oxalis corniculata; 0.1%, 7 days): 5
- damage to the plants, scale 0 to 5 (Oxalis corniculata; 0.1%, 14 days): 5
- damage to the plants, scale 0 to 5 (Glycine max; 0.05%, 7 days): 3
- damage to the plants, scale 0 to 5 (Glycine max; 0.05%, 14 days): 5
- damage to the plants, scale 0 to 5 (Glycine max; 0.1%, 7 days): 5
- damage to the plants, scale 0 to 5 (Glycine max; 0.1%, 14 days): 5
- damage to the plants, scale 0 to 5 (Euphonia supina; 0.05%, 7 days): 3
- damage to the plants, scale 0 to 5 (Euphonia supina; 0.05%, 14 days): 4
- damage to the plants, scale 0 to 5 (Euphonia supina; 0.1%, 7 days): 5
- damage to the plants, scale 0 to 5 (Euphonia supina; 0.1%, 14 days): 5
- damage to the plants, scale 0 to 5 ([4]; 0.05%, 7 days): 3
- damage to the plants, scale 0 to 5 ([4]; 0.05%, 14 days): 4
- damage to the plants, scale 0 to 5 ([4]; 0.1%, 7 days): 5
- damage to the plants, scale 0 to 5 ([4]; 0.1%, 14 days): 5
